Source: US11033538B2, “Dosing regimens for the treatment of lysosomal storage diseases using pharmacological chaperones” (Amicus Therapeutics, Inc., priority 2007, dated 2021)
Like-named read-outs stand apart in the source and are kept apart here. Marks after values point to notes of the source that are not given here.

What was measured:
[1] = test system: lyso-Gb3; experiment: Example 15, plasma lyso-Gb3; assay type: in vivo, human
Description: (§1) Plasma lyso-Gb3 and 24-hour urine GL-3 were analyzed by liquid chromatography-mass-spectroscopy using a novel stable isotope-labeled internal standard, 13C6-lyso-Gb3 (lower-limit-of-quantification: 0.200 ng/mL, 0.254 nmol/L).

[2] = test system: GL-3; experiment: Example 5, kidney GL-3 levels by electron microscopy; assay type: in vivo, human
Description: Eight patients in the study received an ascending dose of 25, 100, and then 250 mg b.i.d. over 6 weeks, followed by 50 mg/day for the remainder of the study.
(§2) Kidney GL-3 levels were assessed by an independent expert using electron microscopy.

[3] = test system: GL-3; experiment: Example 15, 24-hour urine GL-3; assay type: in vivo, human
Description: as §1

[4] = test system: patients with Fabry disease; experiment: Example 15, echocardiography; assay type: in vivo, human; details: for decrease in interventricular septal wall thickness from baseline: up to 24 months
Description: Left ventricular mass index, left posterior wall thickness, diastolic, interventricular septum thickness, diastolic and other parameters were assessed through blinded, centralized evaluation. The baseline visit of extension study AT1001-041/NCT01458119 was used as the last assessment.

[5] = test system: GL-3; experiment: Example 15, podocyte GL-3 by electron microscopy stereology; assay type: in vivo, human; details: after 6 months of DGJ
From the text: This decrease correlated with % reduction in podocyte GL-3 volume (r=0.79, p=0.02). […] The sensitive quantitative method used can assess treatment efficacy for this important cell type over a relatively short period of time. This method is also more sensitive than the methods described above in the kidney analysis of Example 5 (as shown in FIG. 14), as well as the methods earlier in this example relating to qualitative assessment of podocyte GL-3.

[6] = test system: healthy male volunteers
Description: Safety was determined by evaluating vital signs, laboratory parameters (serum chemistry, hematology, and urinalysis), ECGs, physical examination and by recording adverse events during the Treatment Period.
Adverse events were coded using the MedDRA version 7.0 dictionary and summarized by treatment for the number of subjects reporting the adverse event and the number of adverse events reported. A by-subject adverse event data listing including verbatim term, coded term, treatment group, severity, and relationship to treatment was provided. Concomitant medications and medical history were listed by treatment.

[7] = test system: α-GAL; assay type: in vivo, human
Description: Four male patients received a single 150 mg Q.O.D for 12 weeks (Group B); while five male patients received 150 mg Q.O.D. for 24 weeks (Group C). Finally nine female patients were randomized to receive one of three dosages: 50, 150 or 250 mg Q.O.D for 12 weeks (Group D) (FIG. 8).
Enzymatic activity of α-Gal in leukocytes (white blood cells; WBCs) of the patients was measured as a percentage of the average α-Gal activity in white blood cells of 15 healthy volunteers. α-GAL activity was assessed in fractionated tissue obtained from biopsies, and in blood leukocytes and plasma (from blood collected at baseline and every month).

[8] = biological target: T1, hR301Q GLA (Homo sapiens, UniProt P06280, R301Q); experiment: Example 13, half-life of elevated hR301Q GLA after DGJ withdrawal; assay type: in vivo, mice; details: after 4 weeks 100 mg/kg/day DGJ, washout; exponential decay curves
T1 construct: from tissue; host or cells: skin, heart, kidney lysates of hR301Q GLA Tg/KO mice
T1 sequence (P06280 32-429 R301Q): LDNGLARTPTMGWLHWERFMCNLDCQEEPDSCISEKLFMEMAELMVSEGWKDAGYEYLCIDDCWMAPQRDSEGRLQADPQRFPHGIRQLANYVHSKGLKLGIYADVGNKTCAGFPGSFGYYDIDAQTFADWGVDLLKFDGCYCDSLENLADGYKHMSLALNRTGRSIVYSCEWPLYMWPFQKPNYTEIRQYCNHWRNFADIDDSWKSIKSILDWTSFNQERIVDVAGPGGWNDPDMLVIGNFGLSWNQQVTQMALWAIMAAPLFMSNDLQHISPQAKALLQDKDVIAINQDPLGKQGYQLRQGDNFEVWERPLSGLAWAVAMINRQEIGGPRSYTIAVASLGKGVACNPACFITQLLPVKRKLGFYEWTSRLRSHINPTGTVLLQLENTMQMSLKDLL

[9] = Example 13, tissue half-life of DGJ; assay type: in vivo, mice; details: male, hR301Q GLA Tg/KO, mouse, oral; skin, heart, kidney; after 4 weeks 100 mg/kg/day
[10] = test system: patients with Fabry disease; experiment: Example 15, Gastrointestinal Symptoms Rating Scale; assay type: in vivo, human
Description: Patient-reported outcomes were assessed using the Gastrointestinal-Symptoms-Rating-Scale (GSRS), Short Form-36v2TM and Brief-Pain-Inventory-Pain-Severity-Component.

[11] = test system: GL-3; experiment: Oral administration of Amigal to mice that produce defective human α-GAL, GL-3; assay type: in vivo
Description: as §2

[12] = test system: GL-3; experiment: Example 8, GL-3 in tissues of transgenic mice expressing R301Q; assay type: in vivo; details: 100 mg/kg ad libitum, four weeks
[13] = All Patients, OLE DGJ treatment, (95% CI)
[14] = Patients with Symptoms at BL, OLE DGJ treatment, (95% CI)
[15] = Patients with Symptoms at BL, Stage 1

SMILES: OC[C@H]1NC[C@H](O)[C@@H](O)[C@H]1O [DGJ, (2R,3S,4R,5S)-2-(hydroxymethyl) piperdine-3,4,5-triol]
- Mean plasma lyso-Gb3 ([1]; after 6 months of DGJ, baseline 118±48, N=8 males, p=0.0004): 75 ± 42 nM
- plasma lyso-Gb3 levels ([1]; six months of DGJ, mITT-suitable, p=0.0033): significant reduction in plasma lyso-Gb3 levels compared to placebo
- plasma lyso-Gb3 ([1]; switching from placebo to DGJ between 6 and 12 months, p<0.0001): significant reduction in plasma lyso-Gb3
- decrease of GL-3 levels in other kidney cell types including interstitial capillaries ([2]; both patients): less than 1 unit
- kidney GL-3 (mesangial cells, glomerular endothelium, distal tubules) ([2]; one patient, 12 weeks of treatment): observed decrease in GL-3 in multiple cell types of the kidney of one patient
- kidney GL-3 (same cell types) ([2]; second patient, 24 weeks, not independently conclusive): decrease of GL-3 levels in the same kidney cell types
- mean change in 24-hour urine GL-3 substrate (±SEM) concentration ([3]; baseline to month 6, suitable mutants, p=0.44 vs placebo): −361±169 ng/mg creatinine
- 24-hour urine GL-3 substrate (±SEM) concentration reached ([3]; month 6, suitable mutants): 555±151 ng/mg creatinine
- LVMi change from baseline (±SD) ([4]; 30/36 months of treatment, ±21.5): −7.8 g/m^2
- LVMi change from baseline ([4]; 30/36 months, patients with baseline LVH (n=4)): −30.0±17.5 g/m^2
- left ventricular posterior wall thickness ([4]; in vivo): stable for up to 24 months
- decrease in interventricular septal wall thickness from baseline [4]: 5.2%
- decrease in interventricular septal wall thickness from baseline ([4]; ±0.051, baseline 1.17 cm±0.057): 0.061 cm
- mean±SD V(Inc/PC), GL-3 inclusion volume per podocyte ([5]; baseline 2568±1408, N=8 males, p=0.0182): 1282±792 μm^3
- mean podocyte volume ([5]; baseline 6680±2835, p=0.004): 3525±2084 μm^3
- safety and tolerability ([6]; 50 mg b.i.d. and 150 mg b.i.d., 7 days): safe and well tolerated
- adverse events (AEs) ([6]; 50 mg b.i.d. or 150 mg b.i.d.): no subject presented with AEs
- tolerability ([6]; 50 and 150 mg twice daily for 7 days): generally well-tolerated at all doses
- vital sign, ECG, physical examination ([6]; 50 or 150 mg b.i.d.): No clinically relevant abnormality occurred in any vital sign, ECG, or physical examination parameter
- serious adverse events ([6]; any treatment group): no serious adverse events
- mean increase in WBC α-Gal activity ([7]; eleven good responders, male, pre vs post treatment): 630%
- mean increase in leukocyte α-Gal activity ([7]; four moderate responders, male): 170%
- number of good responders (α-Gal activity) ([7]; male patients, Groups A-C): eleven
- number of moderate responders (α-Gal activity) ([7]; male patients, Groups A-C): four
- number of non responders (α-Gal activity) ([7]; male patients, Groups A-C): two
- mean increase in WBC α-Gal activity compared to baseline ([7]; nine female patients, Group D (50, 150 or 250 mg Q.O.D, 12 weeks)): 146%
- leukocyte or kidney α-Gal activity ([7]; non responders, male): None of the “non” responders exhibited any overall increase
- mean increase in kidney α-Gal activity ([7]; one moderate responder, male): 100%
- mean increase in kidney α-Gal activity ([7]; six of the good responders, male): 1090%
- half-life of elevated tissue hR301Q GLA levels [8]: 48 to 60 h
- half-life [9]: 6 to 7 h
- GSRS Diarrhea, change from Baseline to Month 6 ([10]; All Patients, ITT-suitable, Stage 1 double-blind, p = 0.03): −0.3*^2
- GSRS Abdominal Pain, change to Month 24 [10, 13]: −0.2 (−0.5, +0.1)
- GSRS Constipation, change to Month 24 [10, 13]: −0.4 (−0.7, +0.0)*^5
- GSRS Diarrhea, change from Baseline (DGJ) or Month 6 (Placebo) to Month 24 [10, 13]: −0.5 (−0.9, −0.1)*^4
- GSRS Indigestion, change to Month 24 [10, 13]: −0.4 (−0.7, −0.04)*^4
- GSRS Reflux, change to Month 24 [10, 13]: −0.2 (−0.5, 0.2)
- GSRS Abdominal Pain, change from Baseline to Month 6 ([10]; All Patients, Stage 1): 0.0
- GSRS Constipation, change from Baseline to Month 6 ([10]; All Patients, Stage 1): +0.1
- GSRS Indigestion, change from Baseline to Month 6 ([10]; All Patients, Stage 1): −0.1
- GSRS Reflux, change from Baseline to Month 6 ([10]; All Patients, Stage 1): −0.1
- GSRS Abdominal Pain, change to Month 24 [10, 14]: −0.2 (−0.6, 0.1)
- GSRS Constipation, change to Month 24 [10, 14]: −0.5 (−1.1, +0.0)*^5
- GSRS Diarrhea, change to Month 24 [10, 14]: −1.0 (−1.5, −0.4)*^4
- GSRS Indigestion, change to Month 24 [10, 14]: −0.5 (−0.8, −0.06)*^4
- GSRS Reflux, change to Month 24 [10, 14]: −0.6 (−1.5, 0.2)
- GSRS Abdominal Pain, change from Baseline to Month 6 [10, 15]: −0.1
- GSRS Constipation, change from Baseline to Month 6 [10, 15]: +0.2
- GSRS Diarrhea, change from Baseline to Month 6 [10, 15]: −0.6
- GSRS Indigestion, change from Baseline to Month 6 [10, 15]: −0.2
- GSRS Reflux, change from Baseline to Month 6 ([10]; Patients with Symptoms at BL, Stage 1, p = 0.047): −0.6*^3
- GL-3 after oral administration [11]: GL-3 reductions observed
- GL-3 aggregates, histology of renal tube and cardiac sections [12]: presence of GL-3 aggregates was reduced
- concentration of GL-3 in the sampled tissues [12]: reduced
